Starred links: 1 amine or outer side, 2 acyl side, 3 side chain; linkers in the order of their positions; H or OH if unused. Non-standard residues stand in square brackets, D forms with d. Residues, ends and D or L forms follow the SMILES beside them. Groups on a side chain read outwards from the residue. *: point of attachment. C18 diacid = O=C(O)CCCCCCCCCCCCCCCCC(=O)*; γGlu = O=C(O)[C@H](CCC(=O)[*:2])N[*:1]; Ac4c = NC1(C(=O)O)CCC1; AEEA = NCCOCCOCC(=O)O
Target: T1, human glucagon receptor (Homo sapiens, UniProt P47871)
T1 construct: expressed in transfected cells; host or cells: membranes of BHK cells, clone BHK hGCGR A3*25
Experiment: Assay (II)(b) glucagon receptor binding, 125I-glucagon displacement SPA on BHK membranes
Details: without presence of serum albumin; read-out: GlucagonR IC50 (nM) [Assay (II)(b)]
Procedure: The glucagon receptor (glucagonR) binding activity is a measure of affinity of a derivative for the human glucagon receptor. The receptor binding of each compound to the human glucagon receptor was measured in a displacement binding assay. In this type of assay a labelled ligand (in this case 125I-glucagon) is bound to the receptor. Each derivative was added in a series of concentrations to isolated membranes containing the human glucagon receptor and displacement of the labelled ligand is monitored. The receptor binding was reported as the concentration at which half of the labelled ligand is displaced from the receptor, the IC50 value. In order to test the binding of the derivatives to albumin, the assay may be performed in a very low concentration of serum albumin (max. 0.001% final assay concentration) as well as in the presence of a higher concentration of serum albumin (0.2% final assay concentration). An increase of the IC50 value, in the presence of serum albumin indicates an affinity to serum albumin and represents a method to predict a protracted pharmacokinetic profile of the test substance in animal models. […] The protein concentration was determined. […]

T1 sequence (P47871 26-477): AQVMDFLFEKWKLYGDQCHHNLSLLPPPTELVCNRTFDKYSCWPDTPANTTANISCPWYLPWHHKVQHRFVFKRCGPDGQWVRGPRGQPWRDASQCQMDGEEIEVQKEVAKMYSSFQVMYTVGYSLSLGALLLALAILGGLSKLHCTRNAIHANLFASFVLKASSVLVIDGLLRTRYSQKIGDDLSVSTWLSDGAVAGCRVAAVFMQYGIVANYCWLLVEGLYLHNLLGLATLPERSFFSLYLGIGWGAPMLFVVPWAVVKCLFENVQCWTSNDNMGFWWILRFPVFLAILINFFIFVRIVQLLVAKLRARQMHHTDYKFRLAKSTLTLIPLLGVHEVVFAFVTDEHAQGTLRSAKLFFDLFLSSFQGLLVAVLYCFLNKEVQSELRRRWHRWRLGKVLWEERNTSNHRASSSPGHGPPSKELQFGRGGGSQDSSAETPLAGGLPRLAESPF

IC50 [nM]	SMILES
2.7	CC[C@H](C)[C@H](NC(=O)[C@H](CC(C)C)NC(=O)[C@H](Cc1c[nH]c2ccccc12)NC(=O)[C@H](CCC(N)=O)NC(=O)[C@@H](NC(=O)[C@H](Cc1ccccc1)NC(=O)[C@H](CCC(=O)O)NC(=O)[C@H](CCCNC(=N)N)NC(=O)[C@H](C)NC(=O)[C@H](CCCNC(=N)N)NC(=O)[C@H](CCCNC(=N)N)NC(=O)[C@H](CO)NC(=O)[C@H](CCC(=O)O)NC(=O)[C@H](CC(C)C)NC(=O)[C@H](Cc1ccc(O)cc1)NC(=O)[C@H](CCCCN)NC(=O)[C@H](CO)NC(=O)[C@H](CC(C)C)NC(=O)[C@H](CC(=O)O)NC(=O)[C@H](CO)NC(=O)[C@@H](NC(=O)[C@H](Cc1ccccc1)NC(=O)[C@@H](NC(=O)CNC(=O)[C@H](CCC(N)=O)NC(=O)C1(NC(=O)[C@@H](N)Cc2c[nH]cn2)CCC1)[C@@H](C)O)[C@@H](C)O)C(C)C)C(=O)N[C@@H](CCCCNC(=O)CNC(=O)[C@H](CO)NC(=O)[C@H](CCC(=O)O)NC(=O)CNC(=O)[C@H](CO)NC(=O)CC[C@H](NC(=O)CC[C@H](NC(=O)CCCCCCCCCCCCCCCCC(=O)O)C(=O)O)C(=O)O)C(=O)N[C@H](C(N)=O)[C@@H](C)O [Chem. 16, N^ε28-[2-[[(2S)-2-[[(2S)-4-carboxy-2-[[2-[[(2S)-2-[[(4S)-4-carboxy-4-[[(4S)-4-carboxy-4-(17-carboxyheptadecanoylamino)butanoyl]amino]butanoyl]amino]-3-hydroxypropanoyl]amino]acetyl]amino]butanoyl]amino]-3-hydroxypropanoyl]amino]acetyl]-[Acb2,Leu10,Glu15,Arg20,Glu21,Ile27,Lys28]-Glucagon amide] (HELM PEPTIDE1{H.[O=C(C1(N[*:1])CCC1)[*:2]].Q.G.T.F.T.S.D.L.S.K.Y.L.E.S.R.R.A.R.E.F.V.Q.W.L.I.K.T.[am]}|PEPTIDE2{[O=C(O)CCCCCCCCCCCCCCCCC(=O)[*:2]].[gGlu].[gGlu].S.G.E.S.G}$PEPTIDE1,PEPTIDE2,28:R3-8:R2$$$V2.0)
2.7	CC[C@H](C)[C@H](NC(=O)[C@H](CC(C)C)NC(=O)[C@H](Cc1c[nH]c2ccccc12)NC(=O)[C@H](CCC(N)=O)NC(=O)[C@@H](NC(=O)[C@H](Cc1ccccc1)NC(=O)[C@H](CCC(=O)O)NC(=O)[C@H](CCC(N)=O)NC(=O)[C@H](C)NC(=O)[C@H](CCCNC(=N)N)NC(=O)[C@H](CCCNC(=N)N)NC(=O)[C@H](CO)NC(=O)[C@H](CCC(=O)O)NC(=O)[C@H](CC(C)C)NC(=O)[C@H](Cc1ccc(O)cc1)NC(=O)[C@H](CCCCN)NC(=O)[C@H](CO)NC(=O)[C@H](CC(C)C)NC(=O)[C@H](CC(=O)O)NC(=O)[C@H](CO)NC(=O)[C@@H](NC(=O)[C@H](Cc1ccccc1)NC(=O)[C@@H](NC(=O)CNC(=O)[C@H](CCC(N)=O)NC(=O)C1(NC(=O)[C@@H](N)Cc2c[nH]cn2)CCC1)[C@@H](C)O)[C@@H](C)O)C(C)C)C(=O)N[C@@H](CCCCNC(=O)CC[C@H](NC(=O)COCCOCCNC(=O)COCCOCCNC(=O)CC[C@H](NC(=O)CC[C@H](NC(=O)CCCCCCCCCCCCCCCCC(=O)O)C(=O)O)C(=O)O)C(=O)O)C(=O)N[C@H](C(N)=O)[C@@H](C)O [Chem. 38, N^ε28-[(4S)-4-carboxy-4-[[2-[2-[2-[[2-[2-[2-[[(4S)-4-carboxy-4-[[(4S)-4-carboxy-4-(17-carboxyheptadecanoylamino)butanoyl]amino]butanoyl]amino]ethoxy]ethoxy]acetyl]amino]ethoxy]ethoxy]acetyl]amino]butanoyl]-[Acb2,Leu10,Glu15,Glu21,Ile27,Lys28]-Glucagon amide] (H-H[Ac4c]QGTFTSDLSKYLESRRAQEFVQWLIK([γGlu-AEEA-AEEA-γGlu-γGlu-C18 diacid])T-NH2; N-terminus assumed)
